Laboratory results taken from paper PMC12867150, “A fungi-derived cyclic peptide enhances Th9-mediated antitumor immunity by targeting ZAP70 and SREBP1” (The Journal of Clinical Investigation, 2025).
“And” between values parts separate entries of the source, which are not always exact repeats. Equal values may be shown once. Where a name gives a salt, the structure may show the parent alone.

Tests used:
[1] = system: mitochondria of Th9 cells; test: Flow cytometry with MitoTracker Deep Red (Figure 4M, 5L, 7F, 7J); type: cell-based, mouse; details: for Mito tracker (flow cytometric quantification): Figure 5L; for Mito tracker (flow cytometric quantification) / mitochondrial membrane potential measured by MitoTracker staining: (n = 3); for mitochondrial membrane potential measured by MitoTracker staining: Figure 7F; for mitochondrial membrane potential in Th9 cells: Figure 7J, one per column (n = 4)
Protocol: […] Cells were incubated with the respective dyes, washed, and subjected to flow cytometry or fluorescence microscopy analysis. For ultrastructural assessment, mitochondrial number and diameter were quantified from high-resolution transmission electron microscopy (TEM) images using ImageJ software.

human Th9 cells = test: Human Th9 differentiation, IL-9 by flow cytometry (Figure 8A-B, S9A); type: cell-based; details: for IL-9 production in human CD4⁺ T cells (flow cytometric analysis): Figure 8B, Th9-polarizing conditions, individual replicates, one per column (n = 4); for intracellular IL-9 expression in human Th9 cells: flow cytometry, Supplemental Figure 9A
Protocol: Naive human CD4^+ T cells were isolated from PBMCs obtained from healthy donors using the EasySep Human Naive CD4^+ T Cell Isolation Kit II ([…] Technologies, catalog 17555), according to the manufacturer’s protocol. Isolated T cells were cultured in OptiVitro T Cell Medium SF (Excell Bio, catalog TE000-N022) supplemented with recombinant human IL-2 (100 U/mL, Novoprotein, catalog C013). T cell activation was achieved using plate-bound anti-CD3 (5 μg/mL) and soluble anti-CD28 antibodies (2 μg/mL).
For Th9 polarization, cultures were supplemented with IL-4 (10 ng/mL, PeproTech, catalog AF-200-04), TGF-β (1 ng/mL), and neutralizing anti–IFN-γ monoclonal antibody (10 μg/mL, clone B27, BioXcell, catalog BE0245). After 3 days of initial culture, cells were either collected for downstream assays or continued in extended culture with refreshed cytokines to maintain lineage commitment without antibodies. Th9 cells were collected at days 4, 5, and 6 for subsequent in vitro assays. For adoptive transfer studies, day 4–cultured Th9 cells were washed and prepared for intravenous injection.
(§1) Details regarding staining panels (human and mouse), reagents (including clones and catalog numbers), acquisition settings, compensation/controls, and analysis procedures are provided in Supplemental Methods.
MH9A4, Biolegend, Cat. No. 507605, PE/Cy7, clone MH9A4, Biolegend, Cat. No. […]
clone Mab11, Biolegend, Cat. No. 502908), Perforin (APC, clone dG9, Biolegend, Cat.
Flow cytometric acquisition was performed using a BD Fortessa or Cytek Aurora cytometer. Data were analyzed with FlowJo software (v10.8.1 or newer). Fluorescence compensation, isotype-matched controls, and fluorescence-minus-one (FMO) controls were applied as appropriate for multicolor panel validation. […]

TNF-α in Th9 cells = test: Flow cytometry of TNF-α in Th9 cells in vitro (Figure 3F, 5I, 7C, S8M-N); type: cell-based, mouse; parameters: TNF expression in Th9 cells / TNF-α expression of Th9 cells: unit not given here; details: for TNF (flow cytometric quantification): Figure 5I, (n = 5); for TNF expression in Th9 cells: Figure 7C, one per column (n = 4); for TNF-α expression of Th9 cells: Supplemental Figure 8N
Protocol: Naive CD4^+ T cells were isolated from the spleens of C57BL/6J or CD45.1^+ OT-II mice using the MojoSort Mouse CD4 Naive T Cell Isolation Kit (BioLegend, catalog 480040), following the manufacturer’s protocol. Purified cells were cultured in RPMI-1640 medium supplemented with 10% FBS, 1% penicillin-streptomycin, and 0.1% β-mercaptoethanol (Gibco, catalog 21985023).
T cell polarization was initiated under plate-bound anti-CD3 (2 μg/mL, clone 17A2, BioXCell, catalog BE0002) and soluble anti-CD28 (1 μg/mL, clone 37.51, BioXCell, catalog BE0015-1) stimulation, with the addition of cytokines and neutralizing antibodies specific to each subset. For Th9 cells, these included IL-4 (10 ng/mL, Peprotech, catalog 400-04), TGF-β (1 ng/mL, EPOTO Biotech, catalog HF-2021), anti–IL-12 (5 μg/mL, clone C17.8, BioXCell, catalog BE0051), and anti–IFN-γ (10 μg/mL, clone XMG1.2, BioXCell, catalog BE0055); for Th1 cells, these included IL-12 (10 ng/mL, GenScript, catalog Z03211-50) and anti–IL-4 (5 μg/mL, clone 11B11, BioXCell, catalog BE0045); for Th2 cells, these included IL-4 (50 ng/mL), anti–IFN-γ (20 μg /mL), anti–IL-12 (5 μg/mL), Th17 cells: IL-6 (20 ng/mL, EPOTO Biotech, catalog MF-1006), TGF-β (1 ng/mL), IL-1β (10 ng/mL, Peprotech, catalog AF-211-11B), anti–IFN-γ (10 μg/mL), anti–IL-12 (5 μg/mL), and anti–IL-4 (5 μg/mL); and for Tregs, these included TGF-β (3 ng/mL). After 3 days of initial culture, cells were either collected for downstream assays or continued in extended culture with refreshed cytokines to maintain lineage commitment.
as §1
BioLegend, Cat. No. 422301 or Mouse TruStain FcX™, BioLegend, Cat. No. 101319) for 10 minutes at 4°C. For surface marker detection, cells were stained with fluorochrome-conjugated monoclonal antibodies in 96-well V-bottom plates and incubated on ice for 30 minutes. After staining, cells were washed twice and resuspended in FACS buffer for analysis.
Prior to intracellular cytokine staining, cells were restimulated for 4 hours with PMA (Absin, Cat. No. abs9107), ionomycin (Sigma-Aldrich, Cat. No. I0634), and brefeldin A (MedChemExpress, Cat. No. HY-16592). For intracellular cytokine staining, cells were first surface-stained as described above, then fixed and permeabilized using the BD Cytofix/Cytoperm™ kit (BD Biosciences, Cat. No. 554714) according to the manufacturer ’s protocol. Intracellular proteins were stained with directly conjugated antibodies targeting IL-9, IL-17a, IL-4, IFN-γ, TNF-α, FOXP3, p-ZAP70, Perforin, and […]
Antibodies used for mouse samples included those against IL-9 (PE, clone RM9A4, Biolegend, Cat. No. 514104), IFN-γ (PE, clone XMG1.2, Biolegend, Cat. No.
Cat. No. 103138), CD4 (APC/Cy7, clone E-AB-F1353UJ, Elabscience, Cat. No.
AF18028), CD8α (PerCP/Cy5.5, clone E-AB-F1104UJ, Elabscience, Cat. No. […]
clone E-AB-F1187UH, Elabscience, Cat. No. AF19854), TNF-α (BV421, clone MP6-XT22, Biolegend, Cat. No. 506328), FOXP3 (PE, clone FJK-16s, eBioscience, Cat. No.
Perforin (APC, clone S16009A, Biolegend, Cat. No. 154303) and Granzyme B (APC, […]
clone QA16A02, Biolegend, Cat. No. 372203). […]

[2] = EpA + ERKin combination, individual replicates
[3] = EpA + MEKin combination, individual replicates
[4] = single agent, individual replicates
[5] = single agent, 10 µM, individual replicates

Compound: anteiso-C15 Leu7 surfactin [EpA]
- MitoTracker Deep Red ([1]; Figure 4M, individual replicates, (n = 5)): 2580000 and 2400000 and 2450000 and 2490000 and 2480000
- Mito tracker (flow cytometric quantification) [1, 2]: 2055 and 2045 and 2104
- Mito tracker (flow cytometric quantification) [1, 3]: 2331 and 2453 and 2355
- Mito tracker (flow cytometric quantification) [1, 4]: 1845 and 1728 and 1865
- mitochondrial membrane potential measured by MitoTracker staining ([1]; EpA + Fato combination, individual replicates): 1707 and 1737 and 1699
- mitochondrial membrane potential measured by MitoTracker staining [1, 4]: 1400 and 1434 and 1409
- mitochondrial membrane potential in Th9 cells ([1]; MigR1 vector, individual replicates): 5844 and 5817 and 5963 and 6149
- mitochondrial membrane potential in Th9 cells ([1]; Srebf1 (overexpressing SREBP1), individual replicates): 5503 and 5279 and 5218 and 5340
- mitochondrial membrane potential ([1]; MEK/ERK inhibition in EpA-treated Th9 cells, MitoTracker, result in words): paradoxical increase in mitochondrial membrane potential
- mitochondrial membrane potential ([1]; SREBP1 inhibition (fatostatin) in EpA-Th9, result in words): further augmented
- EpA-induced mitochondrial membrane potential upon SREBP1 overexpression ([1]; result in words): abolished
- mitochondrial integrity ([1]; result in words): improved mitochondrial integrity
- IL-9 production in human CD4⁺ T cells (flow cytometric analysis) (human Th9 cells; Day5): 43.3 and 42.8 and 42.9 and 42
- IL-9 production in human CD4⁺ T cells (flow cytometric analysis) (human Th9 cells; Day6): 34.5 and 32.5 and 32.7 and 34.1
- IL-9 expression, human Th9 (human Th9 cells; day 5 to day 6, result in words): significantly elevated IL-9 expression
- intracellular IL-9 expression in human Th9 cells (human Th9 cells; replicate 1): 22%
- intracellular IL-9 expression in human Th9 cells (human Th9 cells; replicate 2): 24.8%
- intracellular IL-9 expression in human Th9 cells (human Th9 cells; replicate 3): 22.1%
- intracellular IL-9 expression in human Th9 cells (human Th9 cells; replicate 4): 24.3%
- TNF-α production (TNF-α in Th9 cells; EpA + fatostatin, result in words): elevated in the combination group
- MFI of TNF-α (TNF-α in Th9 cells; EpA-treated Th9 cells, individual replicates, n = 6): 2286 and 2180 and 2244 and 2177 and 2115 and 2169
- TNF (flow cytometric quantification) (TNF-α in Th9 cells; [2]): 2696 and 2174 and 2281 and 2032 and 1920
- TNF (flow cytometric quantification) (TNF-α in Th9 cells; [3]): 1415 and 1401 and 1417 and 1456 and 1441
- TNF (flow cytometric quantification) (TNF-α in Th9 cells; [4]): 2873 and 2973 and 3771 and 3384 and 2525
- TNF expression in Th9 cells (TNF-α in Th9 cells; EpA (10 µM) + Fatostatin (10 µM), individual replicates): 3879 and 3735 and 3908 and 3188
- TNF expression in Th9 cells (TNF-α in Th9 cells; [5]): 2951 and 2896 and 2950 and 2779
- TNF-α expression of Th9 cells (TNF-α in Th9 cells; MigR1, replicate 1): 2796
- TNF-α expression of Th9 cells (TNF-α in Th9 cells; MigR1, replicate 2): 2837
- TNF-α expression of Th9 cells (TNF-α in Th9 cells; MigR1, replicate 3): 2787
- TNF-α expression of Th9 cells (TNF-α in Th9 cells; SREBP1, replicate 1): 2060
- TNF-α expression of Th9 cells (TNF-α in Th9 cells; SREBP1, replicate 2): 1962
- TNF-α expression of Th9 cells (TNF-α in Th9 cells; SREBP1, replicate 3): 1934
- EpA-induced TNF-α increase (protein) upon SREBP1 overexpression (TNF-α in Th9 cells; result in words): markedly suppressed

Compound: CCCc1cc(-c2nc(-c3ccc(C)cc3)cs2)ccn1 [fatostatin, fatostatin hydrobromide, reference compound]
- mitochondrial membrane potential measured by MitoTracker staining [1, 4]: 1160 and 1151 and 1173
- intracellular IL-9 expression in human Th9 cells (human Th9 cells; replicate 1): 23.3%
- intracellular IL-9 expression in human Th9 cells (human Th9 cells; replicate 2): 24.1%
- intracellular IL-9 expression in human Th9 cells (human Th9 cells; replicate 3): 23.7%
- intracellular IL-9 expression in human Th9 cells (human Th9 cells; replicate 4): 23.5%
- IL-9 production, human EpA-Th9 (human Th9 cells; with fatostatin, result in words): further augmented
- TNF expression in Th9 cells (TNF-α in Th9 cells; [5]): 2574 and 2507 and 2536 and 2484
